Measured values published in patent US20250122160A1, “PROTEIN TYROSINE PHOSPHATASE INHIBITORS AND METHODS OF USE THEREOF” (Calico Life Sciences LLC, priority 0001, published 2025).
pIC50: −log10 of the molar value.

Key:
[1] = biological target: T1, His tagged PTPN2 (TC45) protein (Homo sapiens, UniProt P17706); assay: Mobility shift assay (MSA) to determine potency of PTPN2 inhibitors; format: biochemical; conditions: 0.5 nM enzyme, 2 μM substrate
T1 construct: made in house
T1 sequence (P17706 with tags, fused parts or gaps isoform P17706-2): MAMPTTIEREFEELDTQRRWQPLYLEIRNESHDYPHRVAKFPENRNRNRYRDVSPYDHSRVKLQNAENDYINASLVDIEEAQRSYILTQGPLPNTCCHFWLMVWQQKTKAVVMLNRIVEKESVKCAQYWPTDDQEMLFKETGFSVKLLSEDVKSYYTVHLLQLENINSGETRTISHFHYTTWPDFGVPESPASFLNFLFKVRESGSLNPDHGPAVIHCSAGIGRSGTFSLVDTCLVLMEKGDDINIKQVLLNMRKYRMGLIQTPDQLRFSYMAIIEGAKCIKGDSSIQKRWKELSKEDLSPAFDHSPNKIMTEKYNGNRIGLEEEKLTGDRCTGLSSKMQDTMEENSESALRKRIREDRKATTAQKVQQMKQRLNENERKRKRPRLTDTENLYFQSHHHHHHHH
Procedure: Compound activity was determined using in house His tagged PTPN2 (TC45) protein (SEQ ID NO: 1) in an in vitro enzymatic reaction. The enzymatic assay used to determine activity was a mobility shift assay using a LabChip EZ Reader by Caliper Life Sciences. The enzymatic reaction was carried out in assay buffer (50 mM HEPES pH 7.5, 1 mM EGTA, 10 mM EDTA, 0.01% Tween® 20, and 2 mM DTT). The compounds were dispensed on a white 384 well ProxiPlate™ (PerkinElmer Catalog #6008289) plate using the Labcyte Echo at varying concentrations (12 point, 1:3 dilution). The enzyme (at 0.5 nM) was incubated with compound for 10 minutes at room temperature. Then the substrate (phosphorylated insulin receptor probe sequence: ((OG488)-(NH—CH2—CH2—O—CH2—CH2—O—CH2—CO)-T-R-D-I-(PY)-E-T-D-Y—Y—R—K—K—NH2) (SEQ ID NO: 2) was added at 2 μM to the plates and incubated for another 10 minutes at room temperature. Finally, a quench solution (water and 4-bromo-3-(2-oxo-2-propoxyethoxy)-5-(3-{[1-(phenylmethanesulfonyl)piperidin-4-yl]amino}phenyl)thiophene-2-carboxylic acid) was added to the plates, which were then run on the EZ Reader (excitation 488 nm, emission 530 nm) to measure % conversion (the amount of phosphorylated substrate which was de-phosphorylated by PTPN2). […] The % inhibition was then used to calculate the IC50 values.

[2] = biological target: T2, His tagged full-length PTPN1 protein (Homo sapiens, UniProt P18031); assay: Mobility shift assay (MSA) to determine potency of PTPN1 inhibitors; format: biochemical; conditions: 0.5 nM enzyme, 2 μM substrate
T2 construct: made in house
T2 sequence (P18031 with tags, fused parts or gaps): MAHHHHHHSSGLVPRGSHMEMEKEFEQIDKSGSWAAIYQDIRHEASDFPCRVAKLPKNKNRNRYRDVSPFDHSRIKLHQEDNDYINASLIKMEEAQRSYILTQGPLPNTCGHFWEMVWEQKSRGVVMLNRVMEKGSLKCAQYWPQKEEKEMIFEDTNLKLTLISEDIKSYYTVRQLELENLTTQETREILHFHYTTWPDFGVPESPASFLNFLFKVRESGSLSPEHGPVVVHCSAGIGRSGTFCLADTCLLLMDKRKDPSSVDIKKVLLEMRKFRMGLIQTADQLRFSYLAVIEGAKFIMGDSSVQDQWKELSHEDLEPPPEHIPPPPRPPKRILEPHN
Procedure: Compound activity was determined using in house His tagged full-length PTPN1 protein (SEQ ID NO: 3) in an in vitro enzymatic reaction. The enzymatic assay used to determine activity is a mobility shift assay using a LabChip EZ Reader by Caliper Life Sciences. The enzymatic reaction was carried out in assay buffer (50 mM HEPES pH 7.5, 1 mM EGTA, 10 mM EDTA. 0.01% Tween® 20, and 2 mM DTT). The compounds were dispensed on a white 384 well ProxiPlate™ (PerkinElmer Cat #6008289) plate using a Labcyte Echo® liquid handler at varying concentrations (12 point, 1:3 dilution). The enzyme (at 0.5 nM) was incubated with compound for 10 minutes at room temperature. Then the substrate (phosphorylated insulin receptor probe sequence: ((OG488)-(NH—CH2—CH2—O—CH2—CH2—O—CH2—CO)-T-R-D-I-(PY)-E-T-D-Y—Y—R—K—K—NH2) (SEQ ID NO: 2) was added at 2 μM to the plates and incubated for another 10 minutes at room temperature. Finally, a quench solution (water and 4-bromo-3-(2-oxo-2-propoxyethoxy)-5-(3-{[1-(phenylmethanesulfonyl)piperidin-4-yl]amino}phenyl)thiophene-2-carboxylic acid) was added to the plates, which were then run on the EZ Reader (excitation 488 nm, emission 530 nm) to measure % conversion (the amount of phosphorylated substrate which was de-phosphorylated by PTPN1). […] The % inhibition was then used to calculate the IC50 values.

pIC50 [2]	SMILES	pIC50 [1]
7.00 to 8.00	O=C1CN(c2c(O)cc3c(c2F)CC(CNCC2CCC2)CC3)S(=O)(=O)N1 (centres unmarked) [Compound 400, 5-(7-{[(cyclobutylmethyl)amino]methyl}-1-fluoro-3-hydroxy-5,6,7,8-tetrahydronaphthalen-2-yl)-1λ^6,2,5-thiadiazolidine-1,1,3-trione]	7.00 to 8.00
7.00 to 8.00	O=C1CN(c2c(O)cc3c(c2F)C[C@H](NCc2nccs2)CC3)S(=O)(=O)N1 [Compound 367, 5-[(7R)-1-fluoro-3-hydroxy-7-{[(1,3-thiazol-2-yl)methyl]amino}-5,6,7,8-tetrahydronaphthalen-2-yl]-1λ^6,2,5-thiadiazolidine-1,1,3-trione]	7.00 to 8.00
7.00 to 8.00	Cn1cncc1CN[C@@H]1CCc2cc(O)c(N3CC(=O)NS3(=O)=O)c(F)c2C1 [Compound 357, 5-[(7R)-1-fluoro-3-hydroxy-7-{[(1-methyl-1H-imidazol-5-yl)methyl]amino}-5,6,7,8-tetrahydronaphthalen-2-yl]-1λ^6,2,5-thiadiazolidine-1,1,3-trione]	7.00 to 8.00
8.00 to 9.00	CCC(CC)CCN[C@@H]1CCc2cc(O)c(N3CC(=O)NS3(=O)=O)c(F)c2C1 [Compound 204]	> 9.00
7.00 to 8.00	N[C@H](CCC1CCCCC1)C(=O)N1CCc2cc(O)c(N3CC(=O)NS3(=O)=O)c(F)c2C1 [Compound 250]	7.00 to 8.00
7.00 to 8.00	O=C1CN(c2c(O)cc3c(c2F)CN(CCN2CCNCC2)CC3)S(=O)(=O)N1 [Compound 247]	7.00 to 8.00
7.00 to 8.00	CC(C)(CN[C@@H]1CCc2cc(O)c(N3CC(=O)NS3(=O)=O)c(F)c2C1)CN1CCCC1 [Compound 358, 5-[(7R)-7-{[2,2-dimethyl-3-(pyrrolidin-1-yl)propyl]amino}-1-fluoro-3-hydroxy-5,6,7,8-tetrahydronaphthalen-2-yl]-1λ^6,2,5-thiadiazolidine-1,1,3-trione]	7.00 to 8.00
7.00 to 8.00	CC(C)CCNC[C@H]1Cc2cc(O)c(N3CC(=O)NS3(=O)=O)c(F)c2C1 (single isomer, unassigned) [Compound 292]	–
8.00 to 9.00	NC[C@@H]1Cc2cc(O)c(N3CC(=O)NS3(=O)=O)c(F)c2C1 (single isomer, unassigned) [Compound 408]	8.00 to 9.00
8.00 to 9.00	O=C1CN(c2c(O)cc3c(c2F)CN(CCCC2CCCCC2)CC3)S(=O)(=O)N1 [Compound 286]	8.00 to 9.00
< 7.00	Cc1nn(C)c(C)c1CN1CCc2cc(O)c(N3CC(=O)NS3(=O)=O)c(F)c2C1 [Compound 213]	< 7.00
8.00 to 9.00	CC(C)CCNC[C@@H]1Cc2cc(O)c(N3CC(=O)NS3(=O)=O)c(F)c2C1 (single isomer, unassigned) [Compound 291]	–
7.00 to 8.00	O=C1CN(c2c(O)cc3c(c2F)CN(C[C@H]2C[C@@H]2c2ccncc2)CC3)S(=O)(=O)N1 (racemic) [Compound 248]	–
8.00 to 9.00	CC(C)CCCC1CCc2cc(O)c(N3CC(=O)NS3(=O)=O)c(F)c2C1 (centres unmarked) [Compound 323]	–
8.00 to 9.00	CC(C)(CO)CCN[C@@H]1CCc2cc(O)c(N3CC(=O)NS3(=O)=O)c(F)c2C1 (single isomer, unassigned) [Compound 308]	–
7.00 to 8.00	O=C1CN(c2c(O)cc3c(c2F)C[C@@H](NCCC(F)F)CC3)S(=O)(=O)N1 (single isomer, unassigned) [Compound 259]	–
8.00 to 9.00	C[C@@H](O)CCN[C@@H]1CCc2cc(O)c(N3CC(=O)NS3(=O)=O)c(F)c2C1 (single isomer, unassigned) [Compound 307]	–
8.00 to 9.00	O=C1CN(c2c(O)cc3c(c2F)C[C@H](NCCC(F)F)CC3)S(=O)(=O)N1 (single isomer, unassigned) [Compound 260]	–

Further lines, the compound ahead of its results:

SMILES	pIC50 [2]	pIC50 [1]
CC1(C)CCc2c(cc(O)c(N3CC(=O)NS3(=O)=O)c2F)O1 [Compound 112]	< 7.00	< 7.00
CC1=C(CCN[C@@H]2COc3cc(O)c(N4CC(=O)NS4(=O)=O)c(F)c3C2)C(C)(C)CCC1 [Compound 378, 5-[(3S)-5-fluoro-7-hydroxy-3-{[2-(2,6,6-trimethylcyclohex-1-en-1-yl)ethyl]amino}-3,4-dihydro-2H-1-benzopyran-6-yl]-1λ^6,2,5-thiadiazolidine-1,1,3-trione]	–	7.00 to 8.00
O=C1CN(c2c(O)cc3c(c2F)C[C@H](NCCCC(F)F)CC3)S(=O)(=O)N1 (single isomer, unassigned) [Compound 199]	> 9.00	–
CC(C)CCN[C@H]1CCc2cc(O)c(N3CC(=O)NS3(=O)=O)c(F)c2C1 (single isomer, unassigned) [Compound 117]	7.00 to 8.00	–
O=C1CN(c2c(O)cc3c(c2F)C[C@@H](NCCC2CC2)CC3)S(=O)(=O)N1 (single isomer, unassigned) [Compound 134]	7.00 to 8.00	–
O=C1CN(c2c(O)cc3c(c2F)C[C@@H]([C@H]2CCN(S(=O)(=O)C4CC4)C2)CC3)S(=O)(=O)N1 (single isomer, unassigned) [Compound 139]	7.00 to 8.00	–
CN(C)CCCNC(=O)N1CCc2cc(O)c(N3CC(=O)NS3(=O)=O)c(F)c2C1 [Compound 285]	–	7.00 to 8.00
O=C1CN(c2c(O)cc3c(c2F)C[C@H](NCCC2(C(F)(F)F)CC2)CC3)S(=O)(=O)N1 (single isomer, unassigned) [Compound 148]	> 9.00	–
CC(C)(CCN[C@H]1CCc2cc(O)c(N3CC(=O)NS3(=O)=O)c(F)c2C1)C(F)(F)F (single isomer, unassigned) [Compound 176]	7.00 to 8.00	–
CO[C@@H]1CCc2cc(O)c(N3CC(=O)NS3(=O)=O)c(F)c2C1 (single isomer, unassigned) [Compound 104]	7.00 to 8.00	–
Cc1cc(CNC(=O)N2CCc3cc(O)c(N4CC(=O)NS4(=O)=O)c(F)c3C2)n(C)n1 [Compound 265]	–	7.00 to 8.00
CO[C@H]1CCc2cc(O)c(N3CC(=O)NS3(=O)=O)c(F)c2C1 (single isomer, unassigned) [Compound 109]	7.00 to 8.00	–
O=C1CN(c2c(O)cc3c(c2F)C[C@@H]([C@@H]2CCN(S(=O)(=O)C4CC4)C2)CC3)S(=O)(=O)N1 (single isomer, unassigned) [Compound 137]	8.00 to 9.00	–
O=C1CN(c2c(O)cc3c(c2F)C[C@@H](NCCCC(F)(F)F)CC3)S(=O)(=O)N1 (single isomer, unassigned) [Compound 147]	7.00 to 8.00	–
O=C1CN(c2c(O)cc3c(c2F)C[C@@H]([C@H]2CCNC2)CC3)S(=O)(=O)N1 (single isomer, unassigned) [Compound 138]	7.00 to 8.00	–
O=C1CN(c2c(O)cc3c(c2F)C[C@@H]([C@@H]2CCNC2)CC3)S(=O)(=O)N1 (single isomer, unassigned) [Compound 136]	7.00 to 8.00	–
O=C1CN(c2c(O)cc3c(c2F)C[C@H](NCCC2CC2)CC3)S(=O)(=O)N1 (single isomer, unassigned) [Compound 133]	8.00 to 9.00	–
CC(C)(CCN[C@@H]1CCc2cc(O)c(N3CC(=O)NS3(=O)=O)c(F)c2C1)C(F)(F)F (single isomer, unassigned) [Compound 177]	8.00 to 9.00	–
